Test results published in the supplement of paper PMC10307832.

Assays:
Assay in all cases: relative viability (nuclei count vs DMSO), 5 days (fraction); higher = more cells survive
[1] = compound: CC1=C(N=C(N=C1N)[C@H](CC(=O)N)NC[C@@H](C(=O)N)N)C(=O)N[C@@H]([C@H](C2=CN=CN2)OC3C(C(C(C(O3)CO)O)O)OC4C(C(C(C(O4)CO)O)OC(=O)N)O)C(=O)N[C@H](C)[C@H]([C@H](C)C(=O)N[C@@H]([C@@H](C)O)C(=O)NCCC5=NC(=CS5)C6=NC(=CS6)C(=O)NCCC[S+](C)C)O [Bleomycin] + CS(=O)(=O)CCNCc1ccc(-c2ccc3ncnc(Nc4ccc(OCc5cccc(F)c5)c(Cl)c4)c3c2)o1 [Lapatinib] (partner 2 µM); conditions: main component drawn
In short: (§1)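 Nuclei were stained with Hoechst during a one-step fixation (final 0.05% Triton X-100, 1% formaldehyde, 1 ug/ml Hoechst) carried out 5 days after dosing, then counted on 4× images. The cells, lung cancer lines in 1536-well plates, had been dosed by pin tool the day after seeding with one drug alone or a fixed anchor-drug dose plus five library-drug doses (not always all listed) in √10 steps. Relative viability is the nuclei count in treated wells divided by that in vehicle wells, and each value is the median of duplicate plates.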

[2] = compound: COc1cc([C@@H]2c3cc4c(cc3[C@@H](O[C@@H]3O[C@@H]5CO[C@@H](C)O[C@H]5[C@H](O)[C@H]3O)[C@H]3COC(=O)[C@H]23)OCO4)cc(OC)c1O [Etoposide] + NC(=O)Nc1cc(-c2cccc(F)c2)sc1C(=O)N[C@H]1CCCNC1 [AZD7762] (partner 0.2 µM)
In short: as §1

[3] = compound: CC1=C(N=C(N=C1N)[C@H](CC(=O)N)NC[C@@H](C(=O)N)N)C(=O)N[C@@H]([C@H](C2=CN=CN2)OC3C(C(C(C(O3)CO)O)O)OC4C(C(C(C(O4)CO)O)OC(=O)N)O)C(=O)N[C@H](C)[C@H]([C@H](C)C(=O)N[C@@H]([C@@H](C)O)C(=O)NCCC5=NC(=CS5)C6=NC(=CS6)C(=O)NCCC[S+](C)C)O [Bleomycin] + COc1cc2c(Oc3ccc(NC(=O)C4(C(=O)Nc5ccc(F)cc5)CC4)cc3F)ccnc2cc1OCCCN1CCOCC1 [Foretinib] (partner 0.25 µM); conditions: main component drawn
In short: as §1

[4] = compound: COc1cc([C@@H]2c3cc4c(cc3[C@@H](O[C@@H]3O[C@@H]5CO[C@@H](C)O[C@H]5[C@H](O)[C@H]3O)[C@H]3COC(=O)[C@H]23)OCO4)cc(OC)c1O [Etoposide] + COc1cccc2cc(-c3nc([C@H]4CC[C@H](C(=O)O)CC4)n4ncnc(N)c34)[nH]c12 [OSI-027] (partner 0.5 µM)
In short: as §1

Cell Line | relative viability ([1]; first compound 0.01 µM) | relative viability ([1]; first compound 0.03162 µM) | relative viability ([1]; first compound 0.1 µM) | relative viability ([1]; first compound 0.3162 µM) | relative viability ([1]; first compound 1 µM) | relative viability ([2]; first compound 0.01 µM) | relative viability ([2]; first compound 0.03162 µM) | relative viability ([2]; first compound 0.1 µM) | relative viability ([2]; first compound 0.3162 µM) | relative viability ([2]; first compound 1 µM) | relative viability ([3]; first compound 0.01 µM) | relative viability ([3]; first compound 0.03162 µM) | relative viability ([3]; first compound 0.1 µM) | relative viability ([3]; first compound 0.3162 µM) | relative viability ([3]; first compound 1 µM) | relative viability ([4]; first compound 0.01 µM) | relative viability ([4]; first compound 0.03162 µM) | relative viability ([4]; first compound 0.1 µM) | relative viability ([4]; first compound 0.3162 µM) | relative viability ([4]; first compound 1 µM)
201T | 1 | 0.958 | 0.961 | 0.916 | 0.78 | 0.612 | 0.751 | 0.47 | 0.492 | 0.37 | 0.902 | 0.928 | 0.825 | 0.548 | 0.336 | 0.6 | 0.693 | 0.641 | 0.566 | 0.283
A549 | 0.695 | 0.634 | 0.38 | 0.0818 | 0.0645 | – | – | – | – | – | 0.812 | 0.917 | 0.635 | 0.182 | 0.0665 | – | – | – | – | –
A-427 | 0.797 | 0.874 | 0.776 | 0.369 | 0.169 | 0.713 | 0.741 | 0.569 | 0.473 | 0.286 | 0.862 | 0.873 | 0.935 | 0.481 | 0.284 | 0.472 | 0.486 | 0.43 | 0.396 | 0.212
ABC-1 | 1.01 | 1.03 | 1.23 | 1.01 | 0.961 | 0.978 | 0.851 | 0.468 | 0.425 | 0.369 | 0.773 | 0.9 | 0.579 | 0.346 | 0.24 | 0.529 | 0.564 | 0.339 | 0.361 | 0.179
BEN | 0.72 | 0.709 | 0.913 | 0.571 | 0.542 | 0.828 | 0.818 | – | 0.665 | 0.606 | 0.626 | 0.582 | 0.587 | 0.379 | 0.329 | 0.266 | 0.306 | – | 0.297 | 0.318
CAL-12T | – | 0.557 | 0.454 | 0.218 | 0.21 | 0.567 | 0.792 | 0.613 | 0.477 | 0.409 | 0.993 | 0.706 | 0.579 | 0.199 | 0.174 | 0.527 | 0.603 | 0.339 | 0.555 | 0.199
COR-L23 | 0.707 | 0.776 | 0.294 | 0.14 | 0.115 | – | – | – | – | – | 0.825 | 0.781 | 0.412 | 0.154 | 0.144 | 0.76 | 0.741 | 0.436 | 0.532 | 0.25
COR-L 105 | 0.279 | 0.379 | 0.345 | 0.268 | 0.294 | – | – | – | – | – | 0.895 | 1 | 0.952 | 0.761 | 0.498 | 0.756 | 0.851 | 0.432 | 0.669 | 0.556
Calu-6 | 0.729 | 0.614 | 0.456 | 0.168 | 0.174 | – | – | – | – | – | 0.646 | 0.549 | 0.29 | 0.132 | 0.107 | – | – | – | – | –
ChaGo-K-1 | – | – | – | – | – | 0.859 | 0.863 | 0.863 | 0.69 | 0.302 | 0.831 | 0.75 | 0.754 | 0.507 | 0.444 | 0.487 | 0.689 | 0.466 | 0.285 | 0.174
EBC-1 | 0.217 | 0.215 | 0.199 | 0.206 | 0.196 | – | – | – | – | – | 0.104 | 0.106 | 0.107 | 0.106 | 0.105 | – | – | – | – | –
EKVX | 0.211 | 0.209 | 0.187 | 0.127 | 0.166 | 0.759 | 0.818 | 0.268 | 0.344 | 0.272 | 0.707 | 0.889 | 0.423 | 0.335 | 0.314 | 0.694 | 0.651 | 0.429 | 0.617 | 0.364
EMC-BAC-2 | 0.817 | 0.754 | 0.719 | 0.399 | 0.305 | 1.06 | 1.11 | 0.688 | 0.639 | 0.334 | 0.859 | 0.74 | 0.63 | 0.35 | 0.247 | 0.353 | 0.383 | 0.294 | 0.23 | 0.15
HCC-44 | 0.648 | 0.429 | 0.228 | 0.193 | 0.145 | 1.02 | 1.05 | 1.15 | 1.01 | 0.95 | – | – | – | – | – | 0.625 | 0.524 | 0.52 | 0.505 | 0.294
IA-LM | 0.476 | 0.7 | 0.623 | 0.274 | 0.336 | – | – | – | – | – | 1.09 | 0.96 | 0.899 | 0.56 | 0.241 | – | – | – | – | –
LCLC-103H | – | – | – | – | – | 0.756 | 0.787 | 0.597 | 0.742 | 0.608 | 0.683 | 0.765 | 0.677 | 0.382 | 0.343 | 0.515 | 0.516 | 0.392 | 0.55 | 0.424
